Key:
[1] = target: T1, AR (Rattus norvegicus, UniProt P15207)
T1 sequence (P15207 1-902): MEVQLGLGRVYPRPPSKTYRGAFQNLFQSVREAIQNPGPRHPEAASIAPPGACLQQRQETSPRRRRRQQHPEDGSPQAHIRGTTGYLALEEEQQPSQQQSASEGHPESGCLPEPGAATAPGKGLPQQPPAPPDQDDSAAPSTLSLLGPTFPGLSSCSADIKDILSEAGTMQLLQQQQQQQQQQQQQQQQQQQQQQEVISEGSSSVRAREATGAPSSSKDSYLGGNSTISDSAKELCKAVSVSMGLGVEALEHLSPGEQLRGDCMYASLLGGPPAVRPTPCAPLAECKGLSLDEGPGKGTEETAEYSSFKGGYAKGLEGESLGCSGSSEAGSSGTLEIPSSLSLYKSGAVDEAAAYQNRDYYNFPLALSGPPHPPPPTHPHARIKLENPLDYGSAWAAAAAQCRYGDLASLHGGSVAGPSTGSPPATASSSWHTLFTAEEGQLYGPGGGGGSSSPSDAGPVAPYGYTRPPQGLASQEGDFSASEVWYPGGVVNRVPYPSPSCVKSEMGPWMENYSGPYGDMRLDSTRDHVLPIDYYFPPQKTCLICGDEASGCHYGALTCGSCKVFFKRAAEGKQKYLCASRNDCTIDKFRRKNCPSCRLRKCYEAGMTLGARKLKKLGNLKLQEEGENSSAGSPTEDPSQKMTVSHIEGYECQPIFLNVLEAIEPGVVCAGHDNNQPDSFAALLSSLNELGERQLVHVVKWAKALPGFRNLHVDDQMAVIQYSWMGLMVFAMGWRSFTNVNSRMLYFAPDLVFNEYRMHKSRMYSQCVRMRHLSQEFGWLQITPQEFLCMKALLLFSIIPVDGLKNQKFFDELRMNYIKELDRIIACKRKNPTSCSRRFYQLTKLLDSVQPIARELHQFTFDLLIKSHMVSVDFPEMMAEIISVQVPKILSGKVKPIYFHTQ
Text: The activity of compounds of the present invention as AR agonists was investigated in an immature male rat model, a recognized test of anabolic effects in muscle and sustaining effects in sex organs for a given compound, as described in L. G. Hershberger et al., Proc. Soc. […] Biol. Med., 83, 175 (1953); B. L. Beyler et al, “Methods for evaluating anabolic and catabolic agents in laboratory animals”, J. Amer. Med. Women's Ass., 23, 708 (1968); H. Fukuda et al., “Investigations of the levator ani muscle as an anabolic steroid assay”, Nago Dai. Yak. Ken. Nem. 14, 84 (1966) the disclosures of which are herein incorporated by reference.
The basis of this assay lies in the well-defined action of androgenic agents on the maintenance and growth of muscle tissues and sexual accessory organs in animals and man. […] J. Anat. […] Ital. Biol. Sper. […] II. […] Ital. Biol. Sper. 42, 1600 (1966); A. Boris et al., Steroids 15, 61 (1970). As described above, the effects of androgens on maintenance of male sexual accessory organs, such as the prostate and seminal vesicles, is well described. Castration results in rapid involution and atrophy of the prostate and seminal vesicles. This effect can be reversed by exogenous addition of androgens. […]

[2] = target: endogenous glucocorticoid receptor (A549 cells) (Homo sapiens, UniProt P04150); details: concentration ≦10 μM; 10 ng/mL PMA stimulation; typical value of positive control
Procedure: The AP-1 assay is a cell-based luciferase reporter assay. A549 cells, which contain endogenous glucocorticoid receptor, were stably transfected with an AP-1 DNA binding site attached to the luciferase gene. Cells are then grown in RPMI+10% fetal calf serum (charcoal-treated)+Penicillin/Streptomycin with 0.5 mg/mL geneticin. Cells are plated the day before the assay at approximately 40000 cells/well. On assay day, the media is removed by aspiration and 20 μL assay buffer (RPMI without phenol red+10% FCS (charcoal-treated)+Pen/Strep) is added to each well. At this point either 20 μL assay buffer (control experiments), the compounds of the present invention (“test compounds”) (dissolved in DMSO and added at varying concentrations) or dexamethasome (100 nM in DMSO, positive control) are added to each well. The plates are then pre-incubated for 15 min at 37° C., followed by stimulation of the cells with 10 ng/mL PMA. The plates are then incubated for 7 h at 37° C. after which 40 μL luciferase substrate reagent is added to each well.

[3] = target: wild type AR (MDA 453); details: read-out: Kd for [3H]-DHT; MDA 453 cells, Scatchard analysis
Procedure: For the whole-cell binding assay, human LNCaP cells (T877A mutant AR) or MDA 453 (wild type AR) in 96-well microtiter plates containing RPMI 1640 or DMEM supplemented with 10% charcoal stripped CA-FBS (Cocaleco Biologicals) respectively, were incubated at 37° C. to remove any endogenous ligand that might be complexed with the receptor in the cells.
For the saturation analysis, the difference between the total binding and the non-specific binding, was defined as specific binding. […] See e.g. D. Rodbard, Mathematics and statistics of ligand assays: an illustrated guide: In: J. Langon and J. J. Clapp, eds., Ligand Assay, Masson Publishing U.S.A., Inc., New York, pp. 45-99, (1981), the disclosure of which is herein incorporated by reference.
[formula] After correcting for non-specific binding, IC50 values were determined. […] C2C12 Mouse Myoblast Transactivation Assay

endogenous glucocorticoid receptor (A549 cells), sequence (P04150 whole entry): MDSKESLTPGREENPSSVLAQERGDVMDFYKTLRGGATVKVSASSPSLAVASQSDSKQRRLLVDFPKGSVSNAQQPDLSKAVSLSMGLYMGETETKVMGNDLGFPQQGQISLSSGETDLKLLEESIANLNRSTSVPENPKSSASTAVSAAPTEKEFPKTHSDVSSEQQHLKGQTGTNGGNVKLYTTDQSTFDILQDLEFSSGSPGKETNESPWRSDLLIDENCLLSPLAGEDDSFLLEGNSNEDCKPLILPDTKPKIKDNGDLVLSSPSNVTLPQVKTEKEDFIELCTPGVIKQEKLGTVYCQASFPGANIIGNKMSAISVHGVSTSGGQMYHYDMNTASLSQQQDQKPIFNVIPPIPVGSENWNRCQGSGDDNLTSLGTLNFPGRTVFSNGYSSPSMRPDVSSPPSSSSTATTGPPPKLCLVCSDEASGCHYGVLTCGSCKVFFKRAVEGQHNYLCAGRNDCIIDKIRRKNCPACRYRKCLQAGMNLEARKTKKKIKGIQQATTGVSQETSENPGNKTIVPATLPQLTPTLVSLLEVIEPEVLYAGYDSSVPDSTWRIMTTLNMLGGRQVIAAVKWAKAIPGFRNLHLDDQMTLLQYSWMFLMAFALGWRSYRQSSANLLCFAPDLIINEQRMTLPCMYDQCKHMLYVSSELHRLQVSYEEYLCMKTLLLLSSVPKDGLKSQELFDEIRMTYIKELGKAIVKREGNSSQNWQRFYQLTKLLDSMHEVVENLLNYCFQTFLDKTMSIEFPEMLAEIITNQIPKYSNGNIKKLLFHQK

CCC(=O)O[C@H]1CC[C@H]2[C@@H]3CCC4=CC(=O)CC[C@]4(C)[C@H]3CC[C@]12C [TP, testosterone propionate]
potency relative to free T ([1]; TP versus free T): 10-30 fold | EC50 (increase in organ weight) ([1]; immature castrated rats, dosing for 3 days): ~0.03 mg

C[C@@H]1C[C@H]2[C@@H]3CCC4=CC(=O)C=C[C@]4(C)[C@@]3(F)[C@@H](O)C[C@]2(C)[C@@]1(O)C(=O)CO [dexamethasone]
suppression of activity (% inhibition of the reporter system vs buffer control) [2]: 65%

tritiated dihydrotestosterone [[^3H]-DHT]
Kd [3]: 0.7 nM

Reference: patent US7989640B2, “Sulfonylpyrrolidine modulators of androgen receptor function and method” (Bristol-Myers Squibb Company, priority 2004, dated 2011)
